These results are taken from PubChem BioAssay (NCI).

Each structure is given as a SMILES string. “And” between values parts separate entries of the source, which are not always exact repeats. Equal entries are not always repeated.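 96-well plates; 48 h exposure; 5 concentrations. Endpoints by linear interpolation between flanking doses. Not reached: highest tested concentration assigned. GI50 marks 50% less growth. Definition used: TGI = concentration required for complete inhibition of growth.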

The first assay relates to HL-60(TB) leukemia. Description: inhibition of tumour cell growth, NCI panel, 48 h.
`C[C@@]12C[C@@H](c3ccccc3O1)N1CCCCSC1=N2` gave a TGI of over 100 µM.

Take `COc1ccc(N2C(=O)C3c4[nH]c5ccccc5c4C4CCC(C(C)(C)C)CC4C3C2=O)c(C)c1` (stereo not drawn): the TGI is over 100 µM.

Regarding `C=C1c2nc3ccccc3n2C=C(c2ccccc2)N1c1ccc([N+](=O)[O-])cc1`, the TGI is over 88.1 µM.

Consider `O=c1[nH]cc(N=Cc2cc(Cl)cc(Cl)c2O)c(=O)[nH]1`, for which the TGI was determined as 46.9 µM.

On to `Cc1c2cnccc2c(C)c2c1c1ccccc1n2CCCN`, for which the GI50 was 0.527 µM and 0.414 µM; the TGI is 1.52 µM and 1.81 µM.

Consider `O=C(NNC(=O)c1ccccc1SSc1ccccc1C(=O)NNC(=O)c1ccccc1S)c1ccccc1S`, for which the TGI is 9.49 µM.

Take `Cc1ccccc1-n1c(=O)c2ncn(CCCl)c2n(-c2ccccc2C)c1=S`: the TGI is over 100 µM.

On to `CC1(C)N=C(/C(Cl)=[N+](/[O-])C(=O)c2ccc(F)cc2)C(C)(C)N1O`, for which the TGI turned out to be 27.3 µM.

Regarding `C(/c1ccco1)=c1/nc(-c2ccccc2)n2c1nc1ccccc12`, the TGI is over 100 µM.

On to `COc1cc2c(cc1OC)C(c1ccccc1CCCCl)=NCC2`, for which the TGI is over 100 µM.

On to `Clc1cc(OC2C3CC4CC(C3)CC2C4)nc(Cl)n1` (stereo not drawn), for which the TGI came out at 12.9 µM.

On to `Cc1ccc(SCC(CSCCO)OCn2cnc3c2NC(N)=NC32OCCO2)cc1` (stereo not drawn), for which the TGI was over 100 µM.

`Cc1cccc(/C=N/NC(=S)Nc2ccccc2)n1` registered a TGI of over 24.7 µM.

Turning to `CC(C)c1ccc(/C=C2/C=C(c3ccc4ccccc4c3)OC2=O)cc1`, the TGI turned out to be 39.8 µM.

Take `COc1cc(/C=C/C(=N\NS(=O)(=O)c2ccc(C)cc2)c2sc(NNC(C)=O)nc2C)ccc1O`: the TGI is over 100 µM.

In turn, `COc1ccc(/C=C2\CCC(C)C3=C2NC(=S)NC3c2ccc(OC)c(OC)c2)cc1OC` (stereo not drawn) gave a TGI of over 31.6 µM.

As for `NC(=O)C(c1ccccc1)N1OC2C(=O)N(c3ccccc3)C(=O)C2C1c1c2ccccc2c(Cl)c2ccccc12` (stereo not drawn), the TGI is over 100 µM.

`CNC(=O)OCC1=C(COC(=O)NC)C(C)N(c2ccc(OC)cc2)C1` (stereo not drawn): the TGI amounted to 55.2 µM.

In the case of `N#CC1=C(N)N(c2ccccc2)C(c2ccco2)C1(C#N)C#N` (stereo not drawn), the TGI was found to be 53.4 µM.

On to `N=c1n(C(=O)N2CCCC2)c2cc(Cl)ccc2n1C1=NCCN1`, for which the TGI is over 100 µM.

In the case of `O=C(O)CN(CC(=O)O)C1CCCCC1N(CC(=O)O)CC(=O)NCCN=C=S` (stereo not drawn), the TGI was over 100 µM.

The next assay concerns SN12C renal. Description: inhibition of tumour cell growth, NCI panel, 48 h.
The compound `C[C@@]12C[C@@H](c3ccccc3O1)N1CCCCSC1=N2` returned a TGI of over 100 µM.

As to `COc1ccc(N2C(=O)C3c4[nH]c5ccccc5c4C4CCC(C(C)(C)C)CC4C3C2=O)c(C)c1` (stereo not drawn), the TGI is over 100 µM.

`C=C1c2nc3ccccc3n2C=C(c2ccccc2)N1c1ccc([N+](=O)[O-])cc1` returned a TGI of over 95.2 µM.

For the compound `O=c1[nH]cc(N=Cc2cc(Cl)cc(Cl)c2O)c(=O)[nH]1`, the TGI was over 100 µM.

Regarding `Cc1c2cnccc2c(C)c2c1c1ccccc1n2CCCN`, the GI50 is 0.25 µM; the TGI was 1.36 µM and 1.1 µM.

`O=C(NNC(=O)c1ccccc1SSc1ccccc1C(=O)NNC(=O)c1ccccc1S)c1ccccc1S`: the TGI was over 92.6 µM.

Turning to `Cc1ccccc1-n1c(=O)c2ncn(CCCl)c2n(-c2ccccc2C)c1=S`, the TGI was over 100 µM.

For the compound `CC1(C)N=C(/C(Cl)=[N+](/[O-])C(=O)c2ccc(F)cc2)C(C)(C)N1O`, the TGI came out at 29.2 µM.

`C(/c1ccco1)=c1/nc(-c2ccccc2)n2c1nc1ccccc12` registered a TGI of over 100 µM.

`COc1cc2c(cc1OC)C(c1ccccc1CCCCl)=NCC2` returned a TGI of over 100 µM.

The compound `Clc1cc(OC2C3CC4CC(C3)CC2C4)nc(Cl)n1` (stereo not drawn) showed a TGI of 31 µM.

For the compound `Cc1cccc(/C=N/NC(=S)Nc2ccccc2)n1`, the TGI amounted to 12.3 µM.

`CC(C)c1ccc(/C=C2/C=C(c3ccc4ccccc4c3)OC2=O)cc1` yielded a TGI of over 100 µM.

Regarding `COc1cc(/C=C/C(=N\NS(=O)(=O)c2ccc(C)cc2)c2sc(NNC(C)=O)nc2C)ccc1O`, the TGI was over 100 µM.

`COc1ccc(/C=C2\CCC(C)C3=C2NC(=S)NC3c2ccc(OC)c(OC)c2)cc1OC` (stereo not drawn) had a TGI of over 31.6 µM.

`NC(=O)C(c1ccccc1)N1OC2C(=O)N(c3ccccc3)C(=O)C2C1c1c2ccccc2c(Cl)c2ccccc12` (stereo not drawn): the TGI was over 100 µM.

`CNC(=O)OCC1=C(COC(=O)NC)C(C)N(c2ccc(OC)cc2)C1` (stereo not drawn): the TGI was over 100 µM.

As to `N#CC1=C(N)N(c2ccccc2)C(c2ccco2)C1(C#N)C#N` (stereo not drawn), the TGI is over 100 µM.

`N=c1n(C(=O)N2CCCC2)c2cc(Cl)ccc2n1C1=NCCN1`: the TGI was over 100 µM.

`O=C(O)CN(CC(=O)O)C1CCCCC1N(CC(=O)O)CC(=O)NCCN=C=S` (stereo not drawn) registered a TGI of over 100 µM.

The subject of the next assay is HT29 colon. Description: inhibition of tumour cell growth, NCI panel, 48 h.
For `C[C@@]12C[C@@H](c3ccccc3O1)N1CCCCSC1=N2`, the TGI is over 100 µM.

`COc1ccc(N2C(=O)C3c4[nH]c5ccccc5c4C4CCC(C(C)(C)C)CC4C3C2=O)c(C)c1` (stereo not drawn) came in with a TGI of over 100 µM.

On to `C=C1c2nc3ccccc3n2C=C(c2ccccc2)N1c1ccc([N+](=O)[O-])cc1`, for which the TGI was over 61.1 µM.

`O=c1[nH]cc(N=Cc2cc(Cl)cc(Cl)c2O)c(=O)[nH]1` registered a TGI of 60.8 µM.

On to `Cc1c2cnccc2c(C)c2c1c1ccccc1n2CCCN`, for which the GI50 was 0.0277 µM; the TGI was 1.01 µM and 0.292 µM.

`O=C(NNC(=O)c1ccccc1SSc1ccccc1C(=O)NNC(=O)c1ccccc1S)c1ccccc1S` returned a TGI of over 95.2 µM.

`Cc1ccccc1-n1c(=O)c2ncn(CCCl)c2n(-c2ccccc2C)c1=S` showed a TGI of over 100 µM.

In the case of `CC1(C)N=C(/C(Cl)=[N+](/[O-])C(=O)c2ccc(F)cc2)C(C)(C)N1O`, the TGI was 41 µM.

In the case of `C(/c1ccco1)=c1/nc(-c2ccccc2)n2c1nc1ccccc12`, the TGI is over 100 µM.

In turn, `COc1cc2c(cc1OC)C(c1ccccc1CCCCl)=NCC2` registered a TGI of over 100 µM.

In turn, `Clc1cc(OC2C3CC4CC(C3)CC2C4)nc(Cl)n1` (stereo not drawn) displayed a TGI of 30.5 µM.

In turn, `Cc1ccc(SCC(CSCCO)OCn2cnc3c2NC(N)=NC32OCCO2)cc1` (stereo not drawn) showed a TGI of over 100 µM.

Turning to `Cc1cccc(/C=N/NC(=S)Nc2ccccc2)n1`, the TGI is over 100 µM.

Turning to `CC(C)c1ccc(/C=C2/C=C(c3ccc4ccccc4c3)OC2=O)cc1`, the TGI was over 100 µM.

The compound `COc1cc(/C=C/C(=N\NS(=O)(=O)c2ccc(C)cc2)c2sc(NNC(C)=O)nc2C)ccc1O` gave a TGI of over 100 µM.

In the case of `COc1ccc(/C=C2\CCC(C)C3=C2NC(=S)NC3c2ccc(OC)c(OC)c2)cc1OC` (stereo not drawn), the TGI is over 100 µM.

On to `NC(=O)C(c1ccccc1)N1OC2C(=O)N(c3ccccc3)C(=O)C2C1c1c2ccccc2c(Cl)c2ccccc12` (stereo not drawn), for which the TGI was over 100 µM.

As for `CNC(=O)OCC1=C(COC(=O)NC)C(C)N(c2ccc(OC)cc2)C1` (stereo not drawn), the TGI is over 100 µM.

Take `N#CC1=C(N)N(c2ccccc2)C(c2ccco2)C1(C#N)C#N` (stereo not drawn): the TGI came to 37.1 µM.

Compound `N=c1n(C(=O)N2CCCC2)c2cc(Cl)ccc2n1C1=NCCN1` registered a TGI of over 100 µM.

Turning to `O=C(O)CN(CC(=O)O)C1CCCCC1N(CC(=O)O)CC(=O)NCCN=C=S` (stereo not drawn), the TGI was over 100 µM.

The next assay relates to DU-145 prostate. Description: inhibition of tumour cell growth, NCI panel, 48 h.
For `C[C@@]12C[C@@H](c3ccccc3O1)N1CCCCSC1=N2`, the TGI was over 100 µM.

As to `COc1ccc(N2C(=O)C3c4[nH]c5ccccc5c4C4CCC(C(C)(C)C)CC4C3C2=O)c(C)c1` (stereo not drawn), the TGI was over 100 µM.

`C=C1c2nc3ccccc3n2C=C(c2ccccc2)N1c1ccc([N+](=O)[O-])cc1` had a TGI of over 74.7 µM.
